Measured values reported in patent US20220062371A1, “LIGAND-DRUG-CONJUGATES AS SUBSTRATES FOR SELECTIVE CLEAVAGE BY THE EXOPEPTIDASE ACTIVITY OF CATHEPSIN B” (DEBIOPHARM RESEARCH & MANUFACTURING S.A., priority 2017, published 2022).
Read-outs that look alike come from different tables or passages of the source. Non-standard residues stand in square brackets, D forms with d. Residues, ends and D or L forms follow the SMILES beside them. Groups on a side chain read outwards from the residue. *: point of attachment. DM1Mal(CH2)2CO = COc1cc2cc(c1Cl)N(C)C(=O)C[C@H](OC(=O)[C@H](C)N(C)C(=O)CCSC1CC(=O)N(CCC(=O)*)C1=O)[C@]1(C)O[C@H]1[C@H](C)[C@@H]1C[C@@](O)(NC(=O)O1)[C@H](OC)/C=C/C=C(\C)C2; Camptothecin(20S-OCO) = CC[C@@]1(OC(=O)*)C(=O)OCc2c1cc1n(c2=O)Cc2cc3ccccc3nc2-1; X1 = CC[C@@]1(O*)C(=O)OCc2c1cc1n(c2=O)Cc2cc3ccccc3nc2-1; X2 = CC(=O)N[C@@H](CSC1CC(=O)N(CCC(=O)*)C1=O)C(=O)O; PEG5 = NCCOCCOCCOCCOCCOCCC(=O)O; PEG4 = NCCOCCOCCOCCOCCC(=O)O; Dab = NCC[C@H](N)C(=O)O; Sar = CNCC(=O)O

Molecular target: T1, recombinant human Cathepsin B (Homo sapiens, UniProt P07858)
T1 construct: purchased R&D Systems (Bio-Techne AG) 953-CY-010
Test: Recombinant human Cathepsin B-induced cleavage (in vitro enzymatic cleavage assay, UHPLC-MS/MS)
Format: biochemical
Details: for half-life at 10 μM: human, Cathepsin B 2 μg/mL, 25 mM MES buffer pH 5.0, 37° C., read-out: T1/2 Compound; for Ratio (T1/2 Compound/T1/2 Reference): reference Cys-MC-Val-Cit-PABC-MMAF
Procedure: Cat B-induced cleavage of the compounds of the present invention was evaluated according to the in vitro enzymatic cleavage assay using recombinant human Cathepsin B and UHPLC-MS/MS analysis as described below.
Reference compounds Cys-MC-Val-Cit-PABC-MMAF and MMAF were used as positive controls.
The in vitro enzymatic assay was conducted at 37° C. with the test compounds at a concentration of 10 μM (2.5 μM when the test compound is an antibody-drug conjugate) in the presence of activated recombinant human Cathepsin B enzyme at 2 μg/mL in a 25 mM MES buffer pH 5.0. The enzymatic cleavage reaction was stopped for each defined time point by mixing an equal volume of acetonitrile+0.1% FA containing an internal standard (warfarine at 8 μM).
Analysis was conducted using a Waters Acquity UPLC System coupled to a Waters Xevo TQ triple quad mass spectrometer. UHPLC was conducted depending on the test compounds with a BEH C8 1.7 μm 100×2.1 mm or BEH C18 1.7 μm 50×2.1 mm or HSS T3 1.7 μm 50×2.1 mm columns heated at 45° C. or 50° C. and fitted with 2 μm insert filter pre-columns (available from Waters), and solvent systems A1 (H2O+0.1% FA) and B1 (acetonitrile+0.1% FA) at a flow rate of 0.6 mL/min and a 10-95% gradient of B1 over 1.9 min.
MS/MS was performed using electrospray ionization (ESI) interface in positive mode and specific MRM transitions for each tested compound.

Compound | Cat B-induced cleavage, in words | half-life at 10 μM (10 μM test compound) [s] | Ratio (T1/2 Compound/T1/2 Reference) | cleavage rate compared to reference PABC compound (times faster) (versus Cys-MC-Val-Cit-PABC-MMAF) [fold] | half-life at 10 μM (pH 5, 10 μM test compound) [s]
Arg-PEG4-[Phe-Arg-Glu(Sar-OCPT)-Arg]2-OH [Compound 18] | rapidly released |  |  |  | 
CC[C@H](C)[C@@H]([C@@H](CC(=O)N1CCC[C@H]1[C@H](OC)[C@@H](C)C(=O)N[C@@H](Cc1ccccc1)C(=O)N[C@@H](CCCNC(N)=O)C(=O)N[C@@H](CCCCn1cc(COC(=O)NCCCC[C@H](NC(=O)CCOCCOCCOCCOCCOCCNC(=O)CCN2C(=O)CC(SC[C@H](NC(C)=O)C(=O)O)C2=O)C(=O)NCCOCCOCCOCCOCCOCCC(=O)N[C@@H](CCCCNC(=O)OCc2cn(CCCC[C@H](NC(=O)[C@H](CCCNC(N)=O)NC(=O)[C@H](Cc3ccccc3)NC(=O)[C@H](C)[C@@H](OC)[C@@H]3CCCN3C(=O)C[C@@H](OC)[C@H]([C@@H](C)CC)N(C)C(=O)[C@@H](NC(=O)[C@H](C(C)C)N(C)C)C(C)C)C(=O)N[C@@H](Cc3ccccc3)C(=O)O)nn2)C(=O)NCC(N)=O)nn1)C(=O)N[C@@H](Cc1ccccc1)C(=O)O)OC)N(C)C(=O)[C@@H](NC(=O)[C@H](C(C)C)N(C)C)C(C)C (stereo partly drawn) [Compound 32, Ac-Cys-Mal-[PEG5-Lys(AF-Cit-Lys(Y)-Phe-OH)]2-Gly-NH2] |  | 58.8 | 0.06 | ~20 | 
CC[C@@]1(OC(=O)NCC[C@H](NC(=O)[C@H](CCCNC(=N)N)NC(=O)[C@H](Cc2ccccc2)NC(=O)CCOCCOCCOCCOCCOCCNC(=O)[C@@H](N)CCCNC(=N)N)C(=O)N[C@@H](Cc2ccccc2)C(=O)O)C(=O)OCc2c1cc1n(c2=O)Cc2cc3ccccc3nc2-1 [Compound 10, Arg-PEG4-Phe-Arg-Dab(CO-CPT)-Phe-OH] (H-R[PEG5]FR[Dab](Camptothecin(20S-OCO))F-OH; N-terminus assumed) |  |  | 0.1 |  | 54
COc1cc2cc(c1Cl)N(C)C(=O)C[C@H](OC(=O)[C@H](C)N(C)C(=O)CCSC1CC(=O)N(CCC(=O)NCCCC[C@H](NC(=O)[C@H](CCCCN)NC(=O)[C@H](Cc3ccccc3)NC(=O)CCOCCOCCOCCOCCNC(=O)CCN3C(=O)CC(SC[C@H](NC(C)=O)C(=O)O)C3=O)C(=O)N[C@@H](Cc3ccccc3)C(=O)N[C@@H](Cc3ccccc3)C(=O)N[C@@H](CCCCN)C(=O)O)C1=O)[C@]1(C)O[C@H]1[C@H](C)[C@@H]1C[C@@](O)(NC(=O)O1)[C@H](OC)/C=C/C=C(\C)C2 (stereo partly drawn) [Compound 28, Ac-Cys-Mal-PEG4-Phe-Lys-Lys(Mal-DM1)-Phe-Phe-Lys-OH] ({X2-PEG4}-FKK(DM1Mal(CH2)2CO)FFK-OH) |  | 18 |  |  | 
CC[C@@]1(OC(=O)OC[C@H](NC(=O)[C@H](CCCNC(=N)N)NC(=O)[C@H](Cc2ccccc2)NC(=O)CCOCCOCCOCCOCCOCCNC(=O)[C@@H](N)CCCNC(=N)N)C(=O)N[C@@H](Cc2ccccc2)C(=O)O)C(=O)OCc2c1cc1n(c2=O)Cc2cc3ccccc3nc2-1 [Compound 11, Arg-PEG4-Phe-Arg-Ser(CO-CPT)-Phe-OH] (H-R[PEG5]FRS(Camptothecin(20S-OCO))F-OH; N-terminus assumed) |  |  | 0.2 |  | 132
CC[C@@]1(OC(=O)CN(C)C(=O)CC[C@H](NC(=O)[C@H](CCCNC(=N)N)NC(=O)[C@H](Cc2ccccc2)NC(=O)CCOCCOCCOCCOCCOCCNC(=O)[C@@H](N)CCCNC(=N)N)C(=O)N[C@@H](Cc2ccccc2)C(=O)O)C(=O)OCc2c1cc1n(c2=O)Cc2cc3ccccc3nc2-1 [Compound 8, Arg-PEG4-Phe-Arg-Glu(Sar-OCPT)-Phe-OH] (H-R[PEG5]FRE([Sar-X1])F-OH; N-terminus assumed) | rapidly cleaved |  | 0.19 |  | 132
